The source of these data is paper PMC11054487, “Species-Specific Unbound Fraction Differences in Highly Bound PFAS: A Comparative Study across Human, Rat, and Mouse Plasma and Albumin” (Toxics, 2024).

Structures are written as SMILES.

Series [1] can be described thus: Presaturation equilibrium dialysis, fraction unbound in C57BL/6 mouse plasma. Format: in vitro ADME. Also on record: fraction unbound at 18 h: dose or concentration left out as unconfirmed. Particulars: 37 °C, value (CV), read-out: Fraction Unbound (fu) and Coefficient of Variance (CV), C57BL/6 Plasma; for fraction unbound at 18 h, 5 µM: 5 μM PFAS. On the procedure:
(§1) Each PFAS:matrix combination was assessed in quadruplicate.
(§2) The injection volume for each sample was 5 µL.

The target of a further series is rat serum albumin (RSA) (Rattus norvegicus, UniProt P02770). Kind of series: Presaturation equilibrium dialysis, fraction unbound in rat serum albumin solution. Conditions: for fraction unbound at 18 h, 5 µM: rat. On the procedure:
(§3) The equilibrium dialysis device (EQD) HTD96 (Gales Ferry, CT, USA) was assembled according to manufacturer instructions. DPBS buffer solutions were prepared by adding PFAS with a concentration of either approximately five-fold of the estimated fu values based on initial available data or assumed to be 0.001 if no data was available. The dialysis apparatus and membranes assembled were pre-saturated (250 µL) three times in total with PFAS spiked DPBS buffer solution; twice for 1 h followed by a final 18-h pre-saturation. This same solution was used on the receiver side of the EQD. […] This 4% albumin was used in the albumin binding study to recapitulate plasma concentration, as human albumin concentration in plasma is 3.5–4.5 g/dL (530–680 µM). The matrix was diluted five-fold using DPBS for PFAS that had preliminary fu values lower than 0.01. Dimethylsulfoxide (DMSO) stock solutions of test PFAS were prepared at 500 μM and added to species-specific plasma or 4% albumin to a final concentration of 5 μM with 1% DMSO. Next, 150 μL of PFAS spiked DPBS was added to the receiver side of the membrane and 150 μL of compound spiked matrix was added to the donor side. […] Each PFAS:matrix combination was assessed in quadruplicate. For sample collection, 15 μL of buffer and 45 μL of matrix were sampled from the dialysis device into a 96-deep well plate and matrix-matched with either blank buffer or matrix. The samples were then quenched with 200 μL of cold acetonitrile containing internal standard (tolbutamide 30 nM and carbamazepine 12 nM) to precipitate proteins. Next, the plates were sealed and placed on a vortex mixer for 1 min, and then centrifuged (Beckman Coulter, Fullerton, CA, USA) at 3000 rpm for 5 min at room temperature. Lastly, the supernatant was transferred to a new 96-well plate, fully dried down under nitrogen gas, reconstituted with 200 µL of 50/50 (v/v) HPLC grade water/acetonitrile, and vortexed for 1 min prior to LC-MS/MS analysis.
(§4) LC-MS/MS analyses were performed on a SCIEX Triple Quad 5500 mass spectrometer (SCIEX, Concord, ON, Canada) equipped with Turbo Ion Spray interface. […] All instruments were controlled and synchronized by SCIEX Analyst software (version 1.6.3). Mobile phases compositions were 0.1% formic acid in water (mobile phase A) and 0.1% formic acid in acetonitrile (mobile phase B). […] The column was equilibrated at 5% B for 0.5 min before injecting samples. The total run time for each injection was 6 min. The chromatographic separation was conducted on a Phenomenex Kinetex C18 100Å 30 × 2.1 mm column (Torrance, CA, USA) with a flow rate of 0.5 mL/min. The injection volume for each sample was 5 µL. Multiple-reaction-monitoring (MRM) mode using specific precursor/product ion transitions was used for quantification. Data processing was performed using SCIEX Analyst software (version 1.6.3).
(§5) The calculations for fu are shown in Equations (1) and (2), where D is the dilution factor and fu,d is the diluted fu shown below. All calculations are based on area ratios (analyte peak area/IS peak area), and MS responses used for calculations were all in linear ranges. […] (1) Diluted fud=Receiver Area Ratio/Donor Area Ratio (2) Undiluted fu=1/D/1/fu,d−1+1/D
(§6) Albumin concentrations for rodents have been reported in the literature as rat: 3.0 g/dL; CD-1 mice: 2.7 g/dL; C57BL/6 mice: 2.9 g/dL [53].

Series [2] in a line: Presaturation equilibrium dialysis, fraction unbound in CD-1 mouse plasma. Also on record: fraction unbound at 18 h: dose or concentration left out as unconfirmed. Format: in vitro ADME. Particulars: 37 °C, value (CV), read-out: Fraction Unbound (fu) and Coefficient of Variance (CV), CD-1 Plasma; for fraction unbound at 18 h, 5 µM: 5 μM PFAS. On the procedure: as §1, §2
In series [3] the target is mouse serum albumin (MSA) (Mus musculus, UniProt P07724). In words: Presaturation equilibrium dialysis, fraction unbound in mouse serum albumin solution. Particulars: for fraction unbound at 18 h, 5 µM: mouse. On the procedure: as §3, §4, §5, §6
Sequence of mouse serum albumin (MSA) (P07724 25-608): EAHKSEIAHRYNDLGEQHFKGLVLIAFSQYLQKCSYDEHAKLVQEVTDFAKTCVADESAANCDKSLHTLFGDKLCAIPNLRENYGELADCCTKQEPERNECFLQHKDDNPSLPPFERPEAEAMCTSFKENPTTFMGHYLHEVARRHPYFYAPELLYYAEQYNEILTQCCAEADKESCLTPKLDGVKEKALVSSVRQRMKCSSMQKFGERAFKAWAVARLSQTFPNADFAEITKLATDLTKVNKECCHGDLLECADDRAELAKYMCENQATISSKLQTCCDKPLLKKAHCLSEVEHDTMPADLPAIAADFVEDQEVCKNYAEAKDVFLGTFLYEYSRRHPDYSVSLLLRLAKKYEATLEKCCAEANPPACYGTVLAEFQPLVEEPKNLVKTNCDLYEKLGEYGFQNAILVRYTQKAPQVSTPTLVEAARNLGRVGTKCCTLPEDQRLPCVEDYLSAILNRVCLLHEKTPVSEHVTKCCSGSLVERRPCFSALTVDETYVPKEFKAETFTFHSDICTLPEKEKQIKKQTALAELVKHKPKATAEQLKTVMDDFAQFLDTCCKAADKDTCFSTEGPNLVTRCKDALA
The next series has as its system rat plasma. Also noted: method as in PMID 12499116. Conditions: ultrafiltration method; cited from earlier work.
Series [4] in a line: Presaturation equilibrium dialysis, fraction unbound in human plasma. Conditions: human, 37 °C, value (CV), read-out: Fraction Unbound (fu) and Coefficient of Variance (CV), Human Plasma; for fraction unbound at 18 h, 5 µM: 5 μM PFAS. It is filed as in vitro ADME. Also on record: fraction unbound at 18 h: dose or concentration left out as unconfirmed. How it is done: as §1, §2

Series [5] is described as follows: Presaturation equilibrium dialysis, fraction unbound in rat plasma. Conditions: Wistar-Han rat plasma, 37 °C, value (CV), read-out: Fraction Unbound (fu) and Coefficient of Variance (CV), Rat Plasma; for fraction unbound at 18 h, 5 µM: 5 μM PFAS. Also on record: fraction unbound at 18 h: dose or concentration left out as unconfirmed. Format: in vitro ADME. How it is done:
as §1, §2

For another series, the system named is mouse (C57BL/6) plasma. In words: Presaturation equilibrium dialysis, fraction unbound in C57BL/6 mouse plasma. Also on record: fraction unbound at 18 h: dose or concentration left out as unconfirmed. It is filed as in vitro ADME. Conditions: 5 μM PFAS, 18 h, 37 °C, value (CV). How it is done: as §1, §2
For a further series, the system named is mouse (CD-1) plasma. Kind of series: Presaturation equilibrium dialysis, fraction unbound in CD-1 mouse plasma. It is filed as in vitro ADME. Also noted: fraction unbound at 18 h: dose or concentration left out as unconfirmed. Conditions: 5 μM PFAS, 18 h, 37 °C, value (CV). How it is done:
as §1, §2

The next series relates to human plasma. Kind of series: Presaturation equilibrium dialysis, fraction unbound in human plasma. Format: in vitro ADME. Also noted: fraction unbound at 18 h: dose or concentration left out as unconfirmed. Conditions: 5 μM PFAS, 18 h, 37 °C, value (CV). On the procedure:
as §1, §2

Another series has as its system rat (Wistar-Han) plasma. Kind of series: Presaturation equilibrium dialysis, fraction unbound in rat plasma. It is filed as in vitro ADME. Also on record: fraction unbound at 18 h: dose or concentration left out as unconfirmed. Particulars: 5 μM PFAS, 18 h, 37 °C, value (CV). On the procedure: as §1, §2
Series [6] addresses T1, human serum albumin (HSA) (Homo sapiens, UniProt P02768).
T1 construct: purchased Sigma-Aldrich
Kind of series: Presaturation equilibrium dialysis, fraction unbound in human serum albumin solution. Conditions: 4% human serum albumin in PBS, value (CV). It is filed as in vitro ADME. How it is done:
as §1, §2

The conditions of series [7]: humans; cited from earlier work.
Where [8] appears, read: isolated protein, Fraction unbound (fu) and %CV, RSA 3%, 3% rat serum albumin, value (%CV).
[9] abbreviates: isolated protein, Fraction unbound (fu) and %CV, MSA 3%, 3% mouse serum albumin, value (%CV).
Setting [10] is: 3% rat serum albumin, value (%CV).
The mark [11] stands for this setting: 4% rat serum albumin in PBS, 5 μM PFAS, value (CV).
[12] abbreviates: 3% mouse serum albumin, value (%CV).
The mark [13] stands for this setting: 4% mouse serum albumin in PBS, 5 μM PFAS, value (CV).
Where [14] appears, read: 4% rat serum albumin (RSA) solution, Fraction Unbound (fu) and Coefficient of Variance (CV), RSA, 4% rat serum albumin in PBS, 5 μM PFAS, value (CV).
The mark [15] stands for this setting: 4% mouse serum albumin (MSA) solution, Fraction Unbound (fu) and Coefficient of Variance (CV), MSA, 4% mouse serum albumin in PBS, 5 μM PFAS, value (CV).
The mark [16] stands for this setting: 4% human serum albumin (HSA) solution, 5 μM PFAS, read-out: Fraction Unbound (fu) and Coefficient of Variance (CV), HSA.

Sequence of rat serum albumin (RSA) (P02770 25-608): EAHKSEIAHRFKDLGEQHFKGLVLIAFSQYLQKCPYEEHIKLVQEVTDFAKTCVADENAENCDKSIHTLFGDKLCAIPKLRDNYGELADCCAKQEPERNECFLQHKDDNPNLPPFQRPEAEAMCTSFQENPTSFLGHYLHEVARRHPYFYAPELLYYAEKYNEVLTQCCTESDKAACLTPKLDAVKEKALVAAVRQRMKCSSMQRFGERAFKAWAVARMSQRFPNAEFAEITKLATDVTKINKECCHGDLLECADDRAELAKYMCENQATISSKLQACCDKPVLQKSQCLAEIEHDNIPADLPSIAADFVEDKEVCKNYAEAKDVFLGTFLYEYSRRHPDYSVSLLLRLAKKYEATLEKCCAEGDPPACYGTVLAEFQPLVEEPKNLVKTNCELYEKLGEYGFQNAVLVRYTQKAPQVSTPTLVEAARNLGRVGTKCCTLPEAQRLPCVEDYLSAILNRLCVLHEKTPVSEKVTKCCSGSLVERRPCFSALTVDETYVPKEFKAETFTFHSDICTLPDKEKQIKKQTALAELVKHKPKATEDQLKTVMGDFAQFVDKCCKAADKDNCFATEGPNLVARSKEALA
T1 sequence (P02768 25-609): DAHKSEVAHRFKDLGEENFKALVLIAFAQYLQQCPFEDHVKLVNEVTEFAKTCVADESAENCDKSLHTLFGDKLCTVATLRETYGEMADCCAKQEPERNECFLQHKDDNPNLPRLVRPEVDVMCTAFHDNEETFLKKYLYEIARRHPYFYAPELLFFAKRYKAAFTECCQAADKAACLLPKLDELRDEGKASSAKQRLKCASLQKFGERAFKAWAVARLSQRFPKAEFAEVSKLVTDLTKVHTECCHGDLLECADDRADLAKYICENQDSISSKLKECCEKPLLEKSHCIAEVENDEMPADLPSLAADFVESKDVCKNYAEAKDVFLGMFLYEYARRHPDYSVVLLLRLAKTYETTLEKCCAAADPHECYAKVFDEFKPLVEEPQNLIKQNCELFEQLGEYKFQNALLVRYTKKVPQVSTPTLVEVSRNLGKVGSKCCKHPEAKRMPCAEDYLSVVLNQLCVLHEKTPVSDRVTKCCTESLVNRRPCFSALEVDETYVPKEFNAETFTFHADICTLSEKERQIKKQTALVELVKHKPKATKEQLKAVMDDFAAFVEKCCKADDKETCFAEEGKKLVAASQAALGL

Turning to `O=C(O)C(F)(F)C(F)(F)C(F)(F)C(F)(F)C(F)(F)C(F)(F)F` [PFHpA, perfluoroheptanoic acid], the fraction unbound at 18 h in series [1] was found to be 0.0323; in series [2], 0.0331; in [4] (plasma), 0.00445; in [5] it was 0.00454. The fraction unbound at 18 h, 5 µM on rat serum albumin (RSA) (isolated protein, Fraction Unbound (fu) and Coefficient of Variance (CV), RSA, 4% rat serum albumin in PBS, 5 μM PFAS, value (CV)) was 0.00313; on rat serum albumin (RSA) (setting [8]), 0.00257; in series [3] (isolated protein, Fraction Unbound (fu) and Coefficient of Variance (CV), MSA, 4% mouse serum albumin in PBS, 5 μM PFAS, value (CV)), 0.0118; in [3] (setting [9]), 0.00954. Moreover, the bound result with rat plasma is listed as “greater than 98%”.

Regarding `O=C(O)C(F)(F)C(F)(F)C(F)(F)C(F)(F)C(F)(F)C(F)(F)C(F)(F)C(F)(F)F` [PFNA, perfluorononanoic acid], the “Fraction Unbound (fu) and Coefficient of Variance (CV), C57BL/6 Plasma” value with mouse (C57BL/6) plasma is reported as 0.00438(22%). For the same compound, on rat serum albumin (RSA) (setting [10]), the “Fraction unbound (fu) and %CV, RSA 3%” value is 0.00217 (2%). For the same compound, the “Fraction Unbound (fu) and Coefficient of Variance (CV), RSA” value at rat serum albumin (RSA) (setting [11]) is listed as 0.00271(2%). Also, the “Fraction Unbound (fu) and Coefficient of Variance (CV), CD-1 Plasma” value with mouse (CD-1) plasma was 0.00455(6%). Also, the “Fraction unbound (fu) and %CV, MSA 3%” value in series [3] (setting [12]) is recorded as 0.00292 (6%). Moreover, in series [3] (setting [13]), the “Fraction Unbound (fu) and Coefficient of Variance (CV), MSA” value was 0.00364(6%). Moreover, the bound entry in the series on rat plasma is on record as “greater than 98%”. Also, the “Fraction Unbound (fu) and Coefficient of Variance (CV), Human Plasma” value in the series with human plasma is recorded as 0.00187(3%). In addition, in the series with rat (Wistar-Han) plasma, the “Fraction Unbound (fu) and Coefficient of Variance (CV), Rat Plasma” value was 0.0021(6%).

Turning to `O=C(O)C(F)(F)C(F)(F)C(F)(F)C(F)(F)C(F)(F)C(F)(F)C(F)(F)C(F)(F)C(F)(F)F` [PFDA, perfluorodecanoic acid], the “Fraction Unbound (fu) and Coefficient of Variance (CV), C57BL/6 Plasma” value in the series on mouse (C57BL/6) plasma was 0.00127(9%). In addition, the “Fraction unbound (fu) and %CV, RSA 3%” value on rat serum albumin (RSA) (setting [10]) was 0.000494 (19%). The “Fraction Unbound (fu) and Coefficient of Variance (CV), RSA” value at rat serum albumin (RSA) (setting [11]) was 0.000608(19%). Further, in the series with mouse (CD-1) plasma, the “Fraction Unbound (fu) and Coefficient of Variance (CV), CD-1 Plasma” value is on record as 0.0015(4%). Further, the “Fraction unbound (fu) and %CV, MSA 3%” value in series [3] (setting [12]) is on record as 0.000839 (26%). In series [3] (setting [13]), the “Fraction Unbound (fu) and Coefficient of Variance (CV), MSA” value was 0.00102(26%). Further, in the series on rat plasma, the bound entry is “greater than 98%”. Further, in the series with human plasma, the “Fraction Unbound (fu) and Coefficient of Variance (CV), Human Plasma” value is 0.000618(9%). Besides, the “Fraction Unbound (fu) and Coefficient of Variance (CV), HSA” value in series [6] (5 μM PFAS) is reported as 0.000584(8%). For the same compound, in the series on rat (Wistar-Han) plasma, the “Fraction Unbound (fu) and Coefficient of Variance (CV), Rat Plasma” value is 0.001(9%).

As to `O=S(=O)(O)C(F)(F)C(F)(F)C(F)(F)C(F)(F)C(F)(F)C(F)(F)F` [PFHxS, perfluorohexanesulfonic acid], the fraction unbound at 18 h, 5 µM in series [1] was 0.013; at rat serum albumin (RSA) (setting [14]), 0.000573; on rat serum albumin (RSA) (setting [8]), 0.00047; in series [2], 0.0128; in series [3] (setting [15]), 0.00225; in series [3] (setting [9]), 0.00181. For the same compound, the fraction unbound at 18 h, 5 µM in series [4] turned out to be 0.000695; in [6] (setting [16]), 0.000245; in series [5], 0.00076.

On to `NS(=O)(=O)C(F)(F)C(F)(F)C(F)(F)C(F)(F)C(F)(F)C(F)(F)C(F)(F)C(F)(F)F` [PFOSA, perfluorooctanesulfonamide], for which the fraction unbound at 18 h was 0.0023 in [1]; 0.00326 in series [2]; 0.0019 in series [4]; 0.00152 in [6] (4% human serum albumin (HSA) solution, read-out: Fraction Unbound (fu) and Coefficient of Variance (CV), HSA); 0.00197 in [5]. Further, the fraction unbound at 18 h, 5 µM at rat serum albumin (RSA) (setting [14]) worked out at 0.00118; at rat serum albumin (RSA) (setting [8]) it was 0.000952; in [3] (setting [15]) it was 0.00127; in series [3] (setting [9]), 0.00102.

Take `O=C(O)C(F)(F)C(F)(F)C(F)(F)C(F)(F)C(F)(F)C(F)(F)C(F)(F)F` [PFOA, perfluorooctanoic acid]: the fraction unbound at 18 h, 5 µM in series [1] was found to be 0.0142; at rat serum albumin (RSA) (setting [14]) it was 0.00196; on rat serum albumin (RSA) (setting [8]), 0.00157; in series [2] it was 0.0152; in series [3] (setting [15]), 0.00513; in series [3] (setting [9]) it was 0.00411. Besides, the fraction unbound at 18 h, 5 µM in [4] amounted to 0.0025; in series [6] (setting [16]), 0.00285; in series [5] it was 0.00298. For the same compound, the bound entry in the series with rat plasma is listed as “greater than 98%”. Also, the t1/2 in series [7] is 2.3–5.4 years.
